Consider two molecules from patent publication US9212142B2 (Trustees of Tufts College, priority 2010, dated 2015).

For data set [1] the following is noted: niacin 1500 mg (roughly equimolar dose); niacin was no arm of the trial; cited from earlier work.
A short description of data set [2]: ARI-001 concentrations in liver and adipose tissue vs plasma. Format: in vivo, Golden Syrian hamster. To be noted: HF/HS hamsters dosed 18 days; p<0.01. The procedure: Tissue samples were harvested from hamsters in the above-described 18-day experiment to determine the concentrations of ARI-001 in both liver and adipose tissue. Briefly, liver and adipose samples were harvested at the termination of the experiment; the samples were flash frozen in liquid nitrogen and then stored at −80° C. until used for analysis. To prepare for analysis, a sample of liver was excised from the frozen mass, weighed, and homogenized with a tissue grinder followed by sonication in buffer. The solid materials were then removed by centrifugation. To prepare for LC-MS analysis, the homogenate was then treated to the same preparation technique described for plasma preparation (vide supra). A sample of adipose was excised from the frozen mass, and transferred to a mortar and pestle cooled with liquid nitrogen. During grinding, liquid nitrogen was added to ensure the sample of adipose remained solid. The ground sample was transferred to a tared tube to weigh total sample. This ground sample was extracted with methanol, and this compound-containing methanol was separated from lipid by cooling to −20° C. […]
FIG. 8 graphs the correlation between concentrations of ARI-001 in plasma versus liver (left), and in plasma versus adipose (right). […] Pearson r was determined using all data points illustrated. P-value was determined for a 2-tailed t-test using all data points illustrated.

Data set [3] is described as follows: Once daily vs twice daily dosing of ARI-001, plasma lipids in animal models. To be noted: ARI-001 given once daily. Format: in vivo.
Data set [4] relates to high fat-fed hamsters. As to the kind of experiment: Liver function tests (AST, ALT) in plasma of high fat-fed hamsters dosed 18 days. The data set is classed as in vivo, Golden Syrian hamster. On the procedure: These animals were dosed for 18 consecutive days, while being on a HF/HS diet for a total of nearly 5 weeks. We also examined the glucose levels in the plasma of these animals. For pharmacokinetic studies, we utilized wild type mice for both single and repeated administration study. Finally, pharmacokinetic studies were corroborated by data from single and repeated administration to monkeys. […] AST and ALT were measured using commercially available kits (Bio-Quant Diagnostic Kits, San Diego, Calif.). As expected, AST and ALT values from untreated hamsters (vehicle group) were very high, as the high fat diet leads to hepatomegaly and fatty liver. This disease state is reflected in the elevated AST and ALT levels.

The nature of data set [5]: Single-dose pharmacokinetic study of ARI-001 in wild type mice (PO, IP). The data set is classed as in vivo, C57BL/6 mice. To be noted: oral gavage or intraperitoneal injection. The procedure:
Plasma from the 19 hamsters dosed with ARI-001 in the above described 18-day study was analyzed for concentrations of ARI-001. Concentrations were determined for these samples, which were collected 24 hours after the final dose was administered. Briefly, plasma drug concentrations for the non-GLP pharmacokinetic experiments were determined by LC-MS using an Applied Biosystems 4000Qtrap spectrometer with electrospray ionization. Samples were prepared for analysis by precipitation of plasma proteins with cold methanol. HPLC of the samples was done with an Agilent Eclipse C18 column and a methanol/water gradient containing 0.1% formic acid and 5 mM ammonium acetate. ARI-001 was detected using multiple reaction monitoring (MRM) in the positive ion mode. For quantitation, a standard curve was measured by addition of known amounts of ARI-001 to plasma from untreated animals and preparing in a manner identical to the samples from treated animals. […] Pearson r values were determined using all data points, as was the two-tailed P-value for the data set.
Wild type C57BL/6 mice were dosed with a single administration of ARI-001 in solution either via oral gavage (PO) or via intraperitoneal injection (IP). Blood samples were then collected at various time points over a 24-hour period; plasma was then analyzed for concentrations of ARI-001 as described earlier. […]

Data set [6] can be described thus: Pharmacokinetics of multiple administrations of ARI-001 to fasted monkeys. The data set is classed as in vivo, Macaque monkeys. To be noted: 288 mg/kg oral gavage once per day, seven days. The procedure: ARI-001 was administered to monkeys via oral gavage once per day for a total of seven days. Blood samples were collected after the first and after the last administrations to measure plasma concentrations of ARI-001.

Data set [7] in a line: Multiple administration pharmacokinetic study of ARI-001 in wild type mice. The data set is classed as in vivo, C57BL/6 mice. To be noted: 996, 1493, 2240, 3360 mg/kg oral gavage daily, 30 days. On the procedure: Wild type C57BL/6 mice were dosed with ARI-001 in solution via oral gavage daily for 30 consecutive days. Over the course of five 24-hour periods, blood was collected, and the resultant plasma was analyzed for concentrations of ARI-001. Four doses were used: 996 mg/kg, 1493 mg/kg, 2240 mg/kg, and 3360 mg/kg. […] However, these values were time-independent, as there was no trend observed between these parameters and days of administration. See FIGS. 15A-15D and FIGS. 16A-16B.

Data set [8] in a line: Stability of ARI-001 stored at 50° C., purity by LC-MS. The data set is classed as physicochemical. On the procedure: ARI-001 was synthesized as described above. Purity was determined independently before use in experiments by examination via liquid chromatography-mass spectroscopy (LC-MS). A sample of material was dissolved in water/acetonitrile and injected onto a Discovery C-18 reverse phase column. The mobile phase began as 2%:98% acetonitrile:water, which was held for three minutes, after which a linear gradient was started that ran over 6 minutes, increasing the percent of acetonitrile until a final ratio of 98%:2% acetonitrile:water was reached. This final ratio was held for 3 minutes. The major peak was identified as ARI-001.
Stability was determined by storing ARI-001 under 50° C. with no specified humidity requirement. At various time points over the course of 3 months (90 days), a small sample (<5 mg) of ARI-001 was collected for analysis using LC-MS under the same conditions as used for purity determination (vide supra).

The subject of data set [9] is high fat-fed hamsters. As to the kind of experiment: Plasma glucose in high fat-fed hamsters dosed 18 days. The data set is classed as in vivo, Golden Syrian hamster. To be noted: ARI-001 1120 and 2240 mg/kg. On the procedure: These animals were dosed for 18 consecutive days, while being on a HF/HS diet for a total of nearly 5 weeks. We also examined the glucose levels in the plasma of these animals. For pharmacokinetic studies, we utilized wild type mice for both single and repeated administration study. Finally, pharmacokinetic studies were corroborated by data from single and repeated administration to monkeys.

In the case of `O=C(O)c1cccnc1` [Niacin, nicotinic acid], the Cmax result in [1] is “about 30,000 ng/mL”.

With `O=C(O)c1ccc(CCN2CCOCC2)nc1` [ARI-001], in data set [2], the “correlation between concentrations of ARI-001 in plasma versus adipose” value was “highly statistically significant” and the “correlation between concentrations of ARI-001 in plasma versus liver” value is listed as “highly statistically significant”. Besides, the “changes in plasma lipids, once daily vs same total dose twice daily” value in data set [3] is recorded as “greater than or equal to the lipid altering effects observed with the same total dose of ARI-001 given twice daily”. The “AST in plasma vs vehicle” value in data set [4] (ARI-001 2240 mg/kg) is “drastically reduced”. In addition, the “ALT in plasma vs vehicle” value in data set [4] (ARI-001 1120 and 2240 mg/kg, dose-dependent) is on record as “similarly reduced”. In addition, the “remaining plasma concentration of ARI-001 at the 24 hour timepoint” value in data set [5] is “undetectable”. Further, in [6], the “Cmax value day 7 versus day 1” value is listed as “higher on day 7 than on day 1”, the “concentrations 24 hours after the first or the last doses” value was “essentially identical” and the “plasma concentrations on day 1 versus day 7” value was “very little difference”. In addition, in data set [7], the “Cmax levels and total 24-hour exposure (AUC) vs days of administration” value is listed as “time-independent”; the “Cmax levels and total 24-hour exposure (AUC) vs dose” value is recorded as “dose-dependent”. Moreover, the “purity of ARI-001 on storage” value in data set [8] (after 90 days) is on record as 95.9%. In data set [8] (unregulated humidity, 65 days), the “purity of ARI-001 on storage” value is reported as 98.9%. Besides, in data set [9], the “glucose levels in comparison to the vehicle cohort” value is given as “neither dose of ARI-001 produced any significant change”.
